ChEMBL document CHEMBL4004802, “α-Glucosidase Inhibitors from Malbranchea flavorosea” (J Nat Prod, 2017)
Calls of active or inactive are those of the source. The calls are words filed in the database; no cut-off is given here.

Legend:
[1] = Inhibition of Saccharomyces cerevisiae alpha-glucosidase using p-nitrophenyl-alpha-D-glucopyranoside as substrate after 30 mins
[2] = system: Mus musculus; assay: Antihyperglycemic activity in ICR mouse assessed as decrease in postprandial blood glucose levels at 5 mg/kg administered 30 mins followed by oral sucrose challenge measured after 30 to 120 mins by OSTT; type: functional, organism-based
[3] = system: Mus musculus; assay: Antihyperglycemic activity in nicotinamide/streptozotocin-induced ICR mouse hyperglycemic model assessed as decrease in postprandial blood glucose levels at 5 mg/kg administered 30 mins followed by oral sucrose challenge measured after 30 to 120 mins by OSTT; type: functional, organism-based
[4] = system: Mus musculus; assay: Antihyperglycemic activity in nicotinamide/streptozotocin-induced ICR mouse hyperglycemic model assessed as decrease in postprandial blood glucose levels at 3.2 to 31.6 mg/kg, po administered 30 mins followed by oral sucrose challenge measured after 30 to 120 mins by OSTT; type: functional, organism-based
[5] = system: Mus musculus; assay: Antihyperglycemic activity in ICR mouse assessed as decrease in postprandial blood glucose levels at 3.2 to 31.6 mg/kg, po administered 30 mins followed by oral sucrose challenge measured after 30 to 120 mins by OSTT; type: functional, organism-based

IC50 [1] [µM] | Compound | Activity [2] | Activity [3] | Activity [4] | Activity [5]
2250 | C[C@H](O)[C@H](O)C[C@H]1OCc2c(O)cccc21 |  |  |  | 
1070 | O=C1C=Cc2cccc(O)c2CO1 |  |  |  | 
500 | C[C@H]1O[C@H](O[C@H]2[C@H](O)[C@@H](O)[C@@H](O[C@H]3[C@H](O)[C@@H](O)C(O)O[C@@H]3CO)O[C@@H]2CO)[C@H](O)[C@@H](O)[C@@H]1N[C@H]1C=C(CO)[C@@H](O)[C@H](O)[C@H]1O (stereo partly drawn) [ACARBOSE] | Active | Active |  | 
1250 | C=C1OC(=O)[C@]2([C@H](C)C=CC(=O)[C@@H]2O)[C@H]1O [MASSARIGENIN C] |  |  | Active | Active
